Measurements: the NIST ThermoML archive (doi:10.1021/je500672d)
Numbers after ± are expanded uncertainties.

Conditions: 298.15 K; 101.33 kPa; Liquid; Vibrating tube method

mass density [kg/m3]	Structure (SMILES)
786.4 ± 0.4	CO [methanol]
927.7 ± 0.5	COC(C)=O [methyl ethanoate]

Structure (SMILES)	mass density [kg/m3]
COP(=O)([O-])OC.Cn1cc[n+](C)c1 [1,3-dimethylimidazolium dimethylphosphate]	1257.8 ± 1.4
